Legend:
aged Fisher rats = conditions: oral administration; cited from earlier work
Source text: (§1) Chronic treatment with P021 ...

3xTg-AD mice [1] = conditions: chronic treatment, moderate and severe stages of the pathology; cited from earlier work
Source text: as §1

[2] = cited from earlier work
Source text: A central objective of the field of dementia research is to inhibit, or to at least effectively modify, the course of AD, but at present, no effective treatment or cure for AD is available. CNTF is a pluripotent neurotrophic factor that has a potent effect on the development and maintenance of the nervous system, inducing neuronal survival and differentiation by stimulating gene expression of sensory, sympathetic, and motor neurons. However, the clinical therapeutic usage of recombinant neurotrophic factors is limited because of the insurmountable hurdles of unfavorable pharmacokinetic ...

[3] = no method and no reference printed for this sentence, next sentence ref 22, cited from earlier work
Description: P021 is quite stable in artificial gastric juice (~ 90% during 30 min) and in artificial intestinal juice (> 95% during 120 min).

[4] = test system: Ts65Dn trisomic Down syndrome mouse model; conditions: Ts65Dn mice, prenatal to early postnatal treatment; cited from earlier work
Source text: The prenatal to early postnatal period is highly susceptible to epigenomic dysregulation with implications for health. […] Stress and hormones, such as glucocorticoids, testosterone, and estradiol, mediate the development of the brain during critical prenatal and early postnatal periods.

[5] = test system: PSD95, synapsin, synaptophysin, MAP2; assay: Western blots of dendritic and synaptic markers in hippocampus; assay type: in vivo, mouse; conditions: 3xTg-AD mice
Description: We treated 2- to 3-month-old pregnant 3xTg-AD and WT mothers with compound P021 in mouse chow, or with vehicle feed as control at E8 until their offspring/pups reached PND21, at which point the offspring were separated and put on standard mouse chow (Fig. 1). Treatment was administered as 60 nmol peptide/g formulated diet (Research Diets; New Brunswick, NJ, USA). The vehicle-treated control animals received the same diet but without the peptide. On average, each mouse consumed ~ 2.7 g diet/day.
The tissue from the left cerebral hemisphere from each mouse stored at− 80 °C was homogenized in a Teflon-glass homogenizer to generate 10% (w/v) homogenate. The pre-chilled homogenization buffer contained 50 mM Tris–HCl (pH 7.4), 8.5% sucrose, 2 mM EDTA, 2 mM EGTA, 10 mM β-mercaptoethanol plus the following protease and phosphatase inhibitors: 0.5 mM AEBSF, 10 μg/mL aprotinin, 10 μg/mL leupeptin, 4 μg/mL pepstatin, 5 mM benzamidine, 20 mM β-glycerophosphate, 50 mM sodium fluoride, 1 mM sodium orthovanadate, and 100 nM okadaic acid. Each homogenate was boiled in 2× Laemmli sample buffer for 5 min, and protein concentration was measured by PierceTM 660-nm protein assay (Thermo Scientific; Rockford, IL, USA).
The samples were subjected to 10% SDS-PAGE and electro-transferred onto Immobilon-P membranes (EMD Millipore; Billerica, MA, USA). The blots were then probed with primary antibodies (Table 1) and developed with the corresponding HRP-conjugated secondary antibody and enhanced chemiluminescence (Pierce Biotechnology, Rockford, IL, USA). Densitometric quantification of protein bands in Western blots was analyzed using Multi Gauge version 3.0 software (FUJIFILM North America; Valhalla, NY, USA).

3xTg-AD mice [6] = assay: Novel object recognition test; assay type: in vivo, mouse; conditions: 3xTg-AD offspring, 3-4 months; P021 diet 60 nmol/g E8-PND21; 20-min delay, 5-min test phase; 3xTg-Vh vs 3xTg-P021 P = 0.0007
Description: Pregnant 3xTg-AD and wild-type (WT) mice were treated with compound P021 in mouse chow, or as control with vehicle feed from gestational day 8 (E8) till their offspring/pups reached PND21, at which point the offspring were separated from their mother and put on normal mouse chow (Fig. 1). There were four study groups of mice, as follows: offspring of WT treated with vehicle diet (WT-Vh, n = 10), offspring of WT treated with P021 diet (WT-P021, n = 17), offspring of 3xTg-AD treated with vehicle diet (3xTg-Vh, n = 12), and offspring of 3xTg-AD treated with P021 diet (3xTg-P021, n = 18). Elevated plus maze, novel object recognition test, and Morris water maze were carried out consecutively from postnatal day 90 with all of mice. About 50% (4 animals/group) of the female offspring (n = 7–8 animals/group) were sacrificed at 4 months of age and the remaining 50% (3–4 animals/group) at 22 months of age. […]
The novel object recognition memory task has been used to evaluate hippocampus-dependent memory in rodents through an evaluation of the differences in the exploration time of novel and familiar objects. […] The object discrimination index (DI) during the test phase was calculated as DI = [(time spent exploring the new object − time spent exploring the old object)/(time spent exploring both old and new objects)] × 100%.

[7] = commercial service (APREDICA, Watertown, MA); cited from earlier work
[8] = 4 months, P021 diet E8-PND21, n = 3-4/group

Ac-DGGL^AG-NH2 [P021, 4-mer CNTF small molecule peptide mimetic to which adamantylated glycine was added at the C-terminal]
cognitive aging (aged Fisher rats): could rescue cognitive aging | tau pathology (3xTg-AD mice [1]): significantly reduced | BBB permeability [2]: BBB-permeable | solubility in water [2]: water-soluble | systemic adverse effects [2]: does not induce the systemic adverse effects associated with recombinant CNTF or BDNF | pharmacokinetic properties ([2]; oral administration): suitable pharmacokinetic properties for oral administration | stability in artificial gastric juice ([3]; during 30 min): ~ 90% | stability in artificial intestinal juice ([3]; during 120 min): > 95% | developmental delay and cognitive impairment at adult age [4]: rescues developmental delay and at adult age cognitive impairment | MAP2 deficit [5, 8]: only the PSD 95 deficit was rescued | PSD95 deficit [5, 8]: rescued | synapsin deficit [5, 8]: only the PSD 95 deficit was rescued | synaptophysin deficit [5, 8]: only the PSD 95 deficit was rescued | levels of PSD95, synapsin, synaptophysin, and MAP2 ([5]; 22 months, P021 diet E8-PND21, not significant): a trend for an increase | discrimination index in the test phase (3xTg-AD mice [6]): improved | crossing of the blood-brain barrier [7]: enough P021 crossed the BBB to exert its effect in the brain
